The results in this text go back to ChEMBL document CHEMBL4825724, “Synthesis and biological evaluation of platensic alcohol as an adamantane surrogate in antitumor drug lead adaphostin” (Bioorg Med Chem Lett, 2021).

Data set [1] deals with Jurkat. Put plainly: Cytotoxicity against human Jurkat cells assessed as cell growth inhibition measured after 72 hrs by CCK8 assay. The format is functional, cell-based. Background: Tetrazolium dyes change colour on reduction, which living cells bring about.
In another data set the test system is A549. The data set can be described thus: Cytotoxicity against human A549 cells assessed as cell growth inhibition measured after 72 hrs by CCK8 assay. Type of data set: functional, cell-based. Particulars: A549, 72 h.
In the next data set the test system is Caco-2. The data set can be described thus: Cytotoxicity against human Caco-2 cells assessed as cell growth inhibition measured after 72 hrs by CCK8 assay. Type of data set: functional, cell-based. The following applies: Caco-2, 72 h.
Data set [2] is described as follows: Cytotoxicity against human KPL-4 cells assessed as cell growth inhibition measured after 72 hrs by CCK8 assay. Type of data set: functional, cell-based. Particulars: KPL4, 72 h.
Data set [3] in a line: Half life in human serum incubated up to 24 hrs by HPLC analysis. The format is ADME, cell-free.
Data set [4] has as its system Jurkat. The data set can be described thus: Induction of ROS generation in human Jurkat cells at 1 uM measured after 2 hrs by DCFH-DA staining based flourescence assay relative to H2O2. The format is functional, cell-based.
For data set [5], the system named is Jurkat. The data set can be described thus: Antagonistic cytotoxicity against human Jurkat cells assessed as decrease in cell viability at 0.1 to 25 uM measured after 72 hrs in presence of vorinostat. The format is functional, cell-based. The following applies: dose 0.1-25 µM.
In a further data set the test system is Staphylococcus aureus. The data set can be described thus: Antibacterial activity against methicillin-resistant Staphylococcus aureus. The format is functional.
Data set [6] has as its system Jurkat. The data set can be described thus: Induction of ROS generation in human Jurkat cells at 5 uM measured after 4 hrs by DCFH-DA staining based flourescence assay relative to H2O2. The format is functional, cell-based.
Data set [7] relates to Jurkat. The data set can be described thus: Induction of ROS generation in human Jurkat cells assessed as increase in intracellular ROS level measured after 4 hrs in presence of vorinostat. The format is functional, cell-based.

Values after ≈ are worked out from the molar mass of the structure shown. Active and inactive are the calls of the source. The rule behind the calls is not given here. Bounds are passed on as bounds.

What is called IC50 is the concentration that gives 50% inhibition. Turning to `O=C(O)c1ccc(NCc2cc(O)ccc2O)cc1`, the IC50 in the data set with Jurkat [1] was 20.4 µM; with A549 it was above 100 µM; in the data set on Caco-2 it was 49.8 µM; in data set [2], above 100 µM.

As usually defined, the half-life is the time in which the quantity being followed falls by half. As for `CC12CC34CC[C@H](O)[C@@](C)(CCCO)C3C(CC1C4)O2` (stereo not given in full), the IC50 with Jurkat [1] was found to be 7.3 µM; with A549, 35.9 µM; in the data set on Caco-2, 37.5 µM; in data set [2], 2.7 µM. The molecule also gave a half-life in data set [3] of 5 h.

Take `CC12CC34C=CC(=O)[C@@](C)(CCC(=O)NNC(=O)c5ccc(NCc6cc(O)ccc6O)cc5)C3C(CC1C4)O2` (stereo not given in full): the IC50 is above 100 µM in the data set on Jurkat [1], above 100 µM in the data set with A549, 65.2 µM with Caco-2 and above 100 µM in [2].

Regarding `COC(=O)c1ccc(NCc2cc(O)ccc2O)cc1`, the IC50 stood at 13.1 µM in the data set with Jurkat [1], 23.2 µM in the data set with A549, 15.1 µM in the data set on Caco-2 and 15.6 µM in data set [2]. In data set [3], this molecule showed a half-life of 3 h.

As to `O=C(OC12CC3CC(CC(C3)C1)C2)c1ccc(NCc2cc(O)ccc2O)cc1`, the IC50 turned out to be 3.1 µM in the data set with Jurkat [1], 20.1 µM in the data set on A549, 8 µM with Caco-2 and 4.6 µM in data set [2]. Also, the outcome in the data set with Jurkat [4] was Active. In the data set on Jurkat [5], the outcome was inactive. The molecule also showed a half-life in data set [3] of 12 h.

As usually defined, the MIC is the lowest concentration found to suppress growth. `C[C@]12C[C@@]34C=CC(=O)[C@@](C)(CCC(=O)Nc5c(O)ccc(C(=O)O)c5O)[C@@H]3[C@H](C[C@@H]1C4)O2`: inhibition of growth against Staphylococcus aureus (MIC) required 0.2 µg/mL (≈ 0.453 µM).

As for `CC12CC34CC[C@H](OC(=O)c5ccc(NCc6cc(O)ccc6O)cc5)[C@@](C)(CCCOC(=O)c5ccc(NCc6cc(O)ccc6O)cc5)C3C(CC1C4)O2` (stereo not given in full), the result in the data set on Jurkat [6], in the data set with Jurkat [4], with Jurkat [5] and in the data set with Jurkat [7] was Active. The IC50 in the data set on Jurkat [1] is 5 µM; with A549, 9.6 µM; in the data set with Caco-2 it was 7 µM; in data set [2], 7.7 µM. The molecule also gave a half-life in data set [3] of 12 h.

Turning to `O=C(NNC(=O)C12CC3CC(CC(C3)C1)C2)c1ccc(NCc2cc(O)ccc2O)cc1`, the IC50 is 16 µM in the data set with Jurkat [1], above 100 µM in the data set with A549, above 100 µM in the data set on Caco-2 and above 100 µM in [2].

For the molecule `C[C@@]1(CCC(=O)Nc2c(O)ccc(C(=O)O)c2O)C(=O)C=CC23CC4CC(CC(C4)C21)C3` (stereo not given in full), 1.3 µg/mL (≈ 2.96 µM) was the least that counted as inhibitory against Staphylococcus aureus (MIC).
